The subject of data set [1] is human coronary artery smooth muscle cells (CASMC). Nature of the data set: Vascular Smooth Muscle Cell (SMC) Antiproliferation Assay. Conditions: Homo sapiens; CASMC; viable cell count (Trypan Blue) ~68 hr after compound addition; nitrosylated (nitrosothiol) compound; read-out: IC 50 μM, Nitrosylated Compound (inhibition of proliferation of vascular smooth muscle cells). It is filed as cell-based. As to the method: The cells used in this assay were-human coronary artery smooth-muscle cells (CASMC) supplied by Clonetics Corp. (San Diego, Calif.).
Stock solutions of the test compounds were prepared just prior to addition to the cells by dissolving in ethanol at a concentration of 1000 times the highest concentration to be assayed. This stock solution was diluted, as required, with ethanol to lower concentrations. […] Control cultures received 2 μL of ethanol per well (n=4). On the following morning, the cultures were examined microscopically and their condition recorded. On the third day after test compound addition (˜68 hr), the cultures were examined microscopically again and the viable cells counted with an hemacytometer following trypsinization with 0.25% trypsin-1 mM EDTA. Trypan Blue dye exclusion was used to discriminate between viable and dead cells.

`CC(C)(CNC(=O)C(C)(C)CCC(=O)O)SN=O` [Example 27b, 4-Methyl-4-(N-(2-methyl-2-(nitrosothio)propyl)carbamoyl)pentanoic acid] displayed a melting point of 93 to 96 °C. Besides, the IC50 in data set [1] is 34 µM.
With `CC(C)(CN1C(=O)NC(=O)C1=O)SN=O` [Example 21c, 1-(2-Methyl-2-(nitrosothio)propyl)imidazolidine-2,4,5-trione], the melting point was in the range of 80 to 82 °C. In addition, the IC50 in data set [1] amounted to 12 µM.

The term melting point denotes the temperature, or range, at which the solid turns liquid.

The values above are taken from US20030203915A1, “Nitric oxide donors, compositions and methods of use related applications” (priority 2002, published 2003).
